pIC50: −log10 of the molar value. Each block holds one molecule with its values, some of them ahead of it.
How the values were obtained:
[1] = biological target: Hepatocyte growth factor receptor (Homo sapiens, UniProt P08581); experiment: Inhibition of Met kinase
[2] = Antiproliferative activity against human GTL16 cells; type: functional, cell-based; settings: GTL 16
[3] = Antitumor activity in human GTL16 cells xenografted athymic mouse 50 mg/kg, po daily once for 14 days; type: functional; settings: GTL 16, 336 h, read-out: TGI
[4] = AUC (0 to 8 hrs) in mouse at 50 mg/kg, po; type: ADME, organism-based; parameters: time < 8 hr, dose 50 mg/kg, route oral; settings: plasma
[5] = Antitumor activity in human GTL16 cells xenografted athymic mouse 100 mg/kg, po daily once for 14 days; type: functional; settings: GTL 16, 336 h, read-out: TGI
[6] = Cmax in mouse at 50 mg/kg, po; type: ADME, organism-based; parameters: dose 50 mg/kg, route oral; settings: in vivo
[7] = test system: Liver microsomes; experiment: Metabolic stability in human liver microsomes at 3 uM after 10 mins; type: ADME, Microsome
[8] = Tmax in mouse at 50 mg/kg, po; type: ADME, organism-based; parameters: dose 50 mg/kg, route oral; settings: in vivo
[9] = Metabolic stability in mouse liver microsomes at 3 uM after 10 mins; type: ADME, Microsome
[10] = biological target: Cytochrome P450 3A4 (Homo sapiens, UniProt P08684); experiment: Inhibition of human CYP3A4; type: ADME
[11] = AUC (0 to 4 hrs) in mouse at 50 mg/kg, po; type: ADME, organism-based; parameters: time < 4 hr, dose 50 mg/kg, route oral; settings: plasma
[12] = Antitumor activity in human GTL16 cells xenografted athymic mouse 75 mg/kg, po daily once for 14 days; type: functional; settings: GTL 16, 336 h, read-out: TGI
[13] = Antitumor activity in human GTL16 cells xenografted athymic mouse 25 mg/kg, po daily once for 14 days; type: functional; settings: GTL 16, 336 h, read-out: TGI
[14] = Antitumor activity in human GTL16 cells xenografted athymic mouse 125 mg/kg, po daily once for 14 days; type: functional; settings: GTL 16, 336 h, read-out: TGI
[15] = Protein binding in mouse plasma; type: ADME, cell-free; settings: read-out: PPB (converted)

Cytochrome P450 3A4, sequence (P08684 whole entry): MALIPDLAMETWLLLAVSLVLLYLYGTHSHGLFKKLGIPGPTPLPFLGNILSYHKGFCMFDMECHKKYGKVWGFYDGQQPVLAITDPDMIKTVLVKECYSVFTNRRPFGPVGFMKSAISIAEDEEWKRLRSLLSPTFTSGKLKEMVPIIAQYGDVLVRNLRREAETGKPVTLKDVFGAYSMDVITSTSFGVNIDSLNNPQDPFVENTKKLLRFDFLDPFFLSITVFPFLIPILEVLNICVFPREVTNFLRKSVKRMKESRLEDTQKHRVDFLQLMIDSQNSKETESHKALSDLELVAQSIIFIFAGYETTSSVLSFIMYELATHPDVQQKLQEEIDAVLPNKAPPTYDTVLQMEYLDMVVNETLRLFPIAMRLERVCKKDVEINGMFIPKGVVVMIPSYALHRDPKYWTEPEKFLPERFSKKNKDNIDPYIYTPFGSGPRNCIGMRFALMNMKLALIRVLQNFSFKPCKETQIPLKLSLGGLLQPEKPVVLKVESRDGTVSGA
Hepatocyte growth factor receptor, sequence (P08581 whole entry): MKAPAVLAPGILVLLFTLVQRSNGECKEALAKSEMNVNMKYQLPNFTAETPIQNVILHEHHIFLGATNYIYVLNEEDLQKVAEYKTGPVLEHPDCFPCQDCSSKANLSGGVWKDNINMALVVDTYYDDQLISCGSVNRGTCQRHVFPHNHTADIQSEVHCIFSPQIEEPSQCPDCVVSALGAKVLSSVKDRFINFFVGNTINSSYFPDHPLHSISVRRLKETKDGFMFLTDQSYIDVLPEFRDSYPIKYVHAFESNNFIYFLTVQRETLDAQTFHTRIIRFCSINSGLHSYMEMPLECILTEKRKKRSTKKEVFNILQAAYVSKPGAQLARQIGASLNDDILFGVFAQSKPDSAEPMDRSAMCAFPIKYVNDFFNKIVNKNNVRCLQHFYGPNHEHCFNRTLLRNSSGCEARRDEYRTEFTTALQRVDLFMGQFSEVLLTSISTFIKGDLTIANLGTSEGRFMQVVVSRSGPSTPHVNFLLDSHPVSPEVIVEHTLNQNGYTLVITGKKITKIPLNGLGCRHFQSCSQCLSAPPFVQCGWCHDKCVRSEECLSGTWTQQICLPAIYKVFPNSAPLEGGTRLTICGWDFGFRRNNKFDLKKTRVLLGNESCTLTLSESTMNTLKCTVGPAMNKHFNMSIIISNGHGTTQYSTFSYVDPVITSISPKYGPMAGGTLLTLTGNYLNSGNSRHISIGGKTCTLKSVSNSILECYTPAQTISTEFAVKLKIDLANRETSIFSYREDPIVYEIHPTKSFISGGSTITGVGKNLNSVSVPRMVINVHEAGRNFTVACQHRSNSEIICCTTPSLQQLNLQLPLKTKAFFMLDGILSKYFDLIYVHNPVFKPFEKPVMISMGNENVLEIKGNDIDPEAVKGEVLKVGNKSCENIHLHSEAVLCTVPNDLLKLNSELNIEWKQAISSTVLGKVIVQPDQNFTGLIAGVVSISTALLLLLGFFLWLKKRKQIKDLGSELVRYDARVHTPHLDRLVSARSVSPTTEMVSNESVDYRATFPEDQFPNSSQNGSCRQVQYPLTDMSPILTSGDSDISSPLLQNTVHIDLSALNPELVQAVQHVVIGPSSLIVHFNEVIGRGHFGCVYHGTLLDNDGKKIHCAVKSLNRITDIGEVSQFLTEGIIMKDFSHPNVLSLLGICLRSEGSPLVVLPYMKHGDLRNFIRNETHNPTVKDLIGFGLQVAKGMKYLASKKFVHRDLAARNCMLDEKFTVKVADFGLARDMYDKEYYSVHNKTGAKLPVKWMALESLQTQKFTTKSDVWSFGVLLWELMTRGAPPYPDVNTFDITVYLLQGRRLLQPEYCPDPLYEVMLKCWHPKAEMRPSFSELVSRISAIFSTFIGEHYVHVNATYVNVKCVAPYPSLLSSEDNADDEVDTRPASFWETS

pIC50 [1]: 7.36
SMILES: CN(C)CC(=O)c1c[nH]c2nccc(Oc3ccc(NC(=O)NC(=O)Cc4ccc(F)cc4)cc3F)c12
pIC50 [2]: 5.98

pIC50 [1]: 8.30
SMILES: COC(=O)c1c[nH]c2nccc(Oc3ccc(NC(=O)NC(=O)Cc4ccc(F)cc4)cc3F)c12
pIC50 [2]: 6.74

pIC50 [1]: 8.40
SMILES: O=C(Cc1ccc(F)cc1)NC(=O)Nc1ccc(Oc2ccnc3[nH]cc(CO)c23)c(F)c1
pIC50 [2]: 6.74

pIC50 [1]: 7.00
SMILES: Nc1cc(Oc2ccc(NC(=O)CC(=O)Nc3ccc(F)cc3)cc2F)ccn1
pIC50 [2]: 5.83

pIC50 [1]: 7.96
SMILES: CN1CCN(CC(=O)c2c[nH]c3nccc(Oc4ccc(NC(=O)NC(=O)Cc5ccc(F)cc5)cc4F)c23)CC1
pIC50 [2]: 5.65

pIC50 [1]: 8.15
SMILES: Nc1nc(-c2c[nH]c3nccc(Oc4ccc(NC(=O)NC(=O)Cc5ccc(F)cc5)cc4F)c23)cs1
pIC50 [2]: 7.52

AUC(0-t) at 8 h [4]: 34 µM·h
pIC50 [1]: 8.70
Cmax [6]: 6 µM
Stability [7]: 0.038 nmol/min/mg
Tmax [8]: 4 h
Rate of metabolism [9]: 0.049 nmol/min/mg
SMILES: O=C(Cc1ccc(F)cc1)NC(=O)Nc1ccc(Oc2ccnc3[nH]cc(-c4cccnc4)c23)c(F)c1
inhibition in vivo at 50 mg/kg [3]: 67%
inhibition in vivo at 100 mg/kg [5]: 88%
pIC50 [2]: 7.70

pIC50 [10]: 6.10
pIC50 [1]: 8.70
SMILES: C#Cc1c(Oc2ccc(NC(=O)NC(=O)Cc3ccc(F)cc3)cc2F)ccnc1N
pIC50 [2]: 7.40

pIC50 [1]: 7.96
SMILES: O=C(Cc1ccc(F)cc1)NC(=O)Nc1ccc(Oc2ccnc3[nH]cc(C(=O)NCc4cccnc4)c23)c(F)c1
pIC50 [2]: 6.19

pIC50 [10]: 6.15
pIC50 [1]: 8.52
SMILES: Nc1nccc(Oc2ccc(NC(=O)NC(=O)Cc3ccc(F)cc3)cc2F)c1C#CCO
pIC50 [2]: 7.52

pIC50 [1]: 7.72
SMILES: O=C(Cc1ccc(F)cc1)NC(=O)Nc1ccc(Oc2ccnc3[nH]cc(C(=O)CN4CCC(O)C4)c23)c(F)c1 (stereo not drawn)
pIC50 [2]: 5.83

pIC50 [1]: 7.19
SMILES: O=C(CC(=O)Nc1ccc(Oc2ccnc3[nH]ccc23)c(F)c1)Nc1ccc(F)cc1
pIC50 [2]: 5.97

pIC50 [10]: 5.57
pIC50 [1]: 8.40
SMILES: CN(C)CC#Cc1c(Oc2ccc(NC(=O)NC(=O)Cc3ccc(F)cc3)cc2F)ccnc1N
pIC50 [2]: 6.66

pIC50 [1]: 6.96
Cmax [6]: 2.4 µM
Stability [7]: 0.015 nmol/min/mg
Tmax [8]: 4 h
Rate of metabolism [9]: 0.035 nmol/min/mg
AUC(0-t) at 4 h [11]: 6 µM·h
SMILES: O=C(Cc1ccc(F)cc1)NC(=O)Nc1ccc(Oc2ccnc3[nH]ccc23)c(F)c1
pIC50 [2]: 6.82

AUC(0-t) at 8 h [4]: 11.4 µM·h
pIC50 [1]: 8.70
Cmax [6]: 2.1 µM
Stability [7]: 0.016 nmol/min/mg
Tmax [8]: 4 h
Rate of metabolism [9]: 0.036 nmol/min/mg
SMILES: O=C(Cc1ccc(F)cc1)NC(=O)Nc1ccc(Oc2ccnc3[nH]c(-c4cccnc4)cc23)c(F)c1
pIC50 [2]: 7.52

pIC50 [1]: 7.46
Cmax [6]: 10.5 µM
Stability [7]: 0 nmol/min/mg
Tmax [8]: 4 h
Rate of metabolism [9]: 0.018 nmol/min/mg
AUC(0-t) at 4 h [11]: 33 µM·h
SMILES: Nc1cc(Oc2ccc(NC(=O)NC(=O)Cc3ccc(F)cc3)cc2F)ccn1
inhibition in vivo at 75 mg/kg [12]: 80%
inhibition in vivo at 25 mg/kg [13]: < 50%
pIC50 [2]: 6.54
inhibition in vivo at 125 mg/kg [14]: 98%

pIC50 [10]: 5.74
pIC50 [1]: 8.30
SMILES: NCC#Cc1c(Oc2ccc(NC(=O)NC(=O)Cc3ccc(F)cc3)cc2F)ccnc1N
pIC50 [2]: 6.60

pIC50 [10]: 4.43
AUC(0-t) at 8 h [4]: 85 µM·h
pIC50 [1]: 8.30
Cmax [6]: 16 µM
Stability [7]: 0 nmol/min/mg
Tmax [8]: 4 h
Rate of metabolism [9]: 0.042 nmol/min/mg
fraction unbound [15]: 0.0002
SMILES: Nc1nccc(Oc2ccc(NC(=O)NC(=O)Cc3ccc(F)cc3)cc2F)c1C#Cc1ccccn1
inhibition in vivo at 50 mg/kg [3]: < 50%
pIC50 [2]: 7.40

Source: ChEMBL document CHEMBL1150388, “Discovery of orally active pyrrolopyridine- and aminopyridine-based Met kinase inhibitors” (Bioorg Med Chem Lett, 2008)
